Assay results as given in patent US6541450B1, “Parathyroid hormone analogues for the treatment of osteoporosis” (National Research Council of Canada, priority 1994, dated 2003).
Read-outs that look alike come from different tables or passages of the source. Where a SMILES comes first, the peptide text is derived from it. Bridges are numbered along the chain shown (N, C = ends). Where no end group is shown, it is not given here.

Key:
[1] = molecular target: T1, adenylyl cyclase, ROS 17/2 cells (Rattus norvegicus, UniProt P25961); assay: Adenylyl cyclase stimulation, [3H]-cyclic AMP production in ROS 17/2 cells; type: cell-based
T1 sequence (P25961 27-591): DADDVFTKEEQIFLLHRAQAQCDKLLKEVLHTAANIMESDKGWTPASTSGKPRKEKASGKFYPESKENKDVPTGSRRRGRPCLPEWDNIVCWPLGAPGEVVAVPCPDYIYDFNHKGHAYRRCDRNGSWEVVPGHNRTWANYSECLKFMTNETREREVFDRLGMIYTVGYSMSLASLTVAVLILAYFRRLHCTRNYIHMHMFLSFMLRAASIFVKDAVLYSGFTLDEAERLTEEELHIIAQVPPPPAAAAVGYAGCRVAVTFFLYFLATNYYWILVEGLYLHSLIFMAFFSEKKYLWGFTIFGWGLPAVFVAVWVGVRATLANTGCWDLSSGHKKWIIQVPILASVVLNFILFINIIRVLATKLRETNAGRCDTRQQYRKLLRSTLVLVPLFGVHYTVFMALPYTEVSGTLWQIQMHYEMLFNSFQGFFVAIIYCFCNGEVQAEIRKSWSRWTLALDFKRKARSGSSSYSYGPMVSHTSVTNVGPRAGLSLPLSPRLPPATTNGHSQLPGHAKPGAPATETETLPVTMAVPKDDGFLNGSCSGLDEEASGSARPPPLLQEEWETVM

[2] = test system: anesthetized female Sprague-Dawley rats; assay: Hypotensive effect, tail artery pressure in anaesthetized rats
Experimental: Female Sprague-Dawley rats (weighing over 290 g) were anaesthetized with intraperitoneally injected sodium pentobarbital (65 mg/kg body weight). Rectal temperature was monitored with a YS1402 thermistor (Yellow Springs Instrument Co., Inc. Yellow Springs, Ohio) and maintained between 36.0 and 38.5° C. throughout the experiment. Ear pinna temperature was also monitored using a YSi banjo thermistor. The tail artery was exposed to cannulated with a Jelco 25-gIV catheter (Johnson and Johnson Medical Inc., Arlington, Tex.) and connected to a Statham pressure transducer, the signals from which were recorded digitally with a Biopac Systems MP100 Monitor (Harvard Instruments, Saint Laurent, QC, Canada). For intravenous injection of PTH or one of its fragments, a femoral vein was also exposed. After surgery, the rat was allowed to stabilize for 8 min after which PTH or one of its fragments (dissolved in acidified saline containing 0.001 N HCl) was injected into the femoral vein or under the skin of the abdomen. Data were collected for 12 min after intravenous injection or for 22 min after subcutaneous injection.

PTH receptor [3] = molecular target: T2, PTH receptor (rat (ROS 17/2 rat osteosarcoma cell …, UniProt P25961)); assay: cell-based or functional assay
PTH receptor [4] = molecular target: T2, PTH receptor; assay: cell-based or functional assay; remark: listed apart in the source
[5] = ROS 17/2 cells, concentration for half-maximal increase in AC activity, read-out: Adenylyl Cyclase (EC50)

Molecule: CC[C@H](C)[C@H](NC(=O)[C@H](CCC(=O)O)NC(=O)[C@H](CO)NC(=O)[C@@H](NC(=O)[C@@H](N)CO)C(C)C)C(=O)N[C@@H](CCC(N)=O)C(=O)N[C@@H](CC(C)C)C(=O)N[C@@H](CCSC)C(=O)N[C@@H](Cc1c[nH]cn1)C(=O)N[C@@H](CC(N)=O)C(=O)N[C@@H](CC(C)C)C(=O)NCC(=O)N[C@@H](CCCCN)C(=O)N[C@@H](Cc1c[nH]cn1)C(=O)N[C@@H](CC(C)C)C(=O)N[C@@H](CC(N)=O)C(=O)N[C@@H](CO)C(=O)N[C@@H](CCSC)C(=O)N[C@@H](CCC(=O)O)C(=O)N[C@@H](CCCN=C(N)N)C(=O)N[C@H](C(=O)N[C@H]1CCC(=O)NCCCC[C@@H](C(=O)N[C@@H](CC(C)C)C(=O)N[C@@H](CC(C)C)C(=O)N[C@@H](CCC(N)=O)C(=O)N[C@@H](CC(=O)O)C(N)=O)NC(=O)[C@H](CCCN=C(N)N)NC(=O)[C@H](CC(C)C)NC(=O)[C@H](Cc2c[nH]c3ccccc23)NC1=O)C(C)C [compound 8, [Leu^27]cyclo(Glu^22Lys^26)-hPTH-(1-30)-NH2] (H-SVSEIQLMHNLGKHLNSMERVEWLRKLLQD-NH2; lactam 22-26)
- EC50 [1, 5]: 20 nM
- rate of transport of subcutaneously injected peptide to the vascular system ([2]; subcutaneous, 0.8 nmol/100 g of body weight): significantly (p<0.05) reduced rates of transport

Molecule: CC[C@H](C)[C@H](NC(=O)[C@H](CCC(=O)O)NC(=O)[C@H](CO)NC(=O)[C@@H](NC(=O)[C@@H](N)CO)C(C)C)C(=O)N[C@@H](CCC(N)=O)C(=O)N[C@@H](CC(C)C)C(=O)N[C@@H](CCSC)C(=O)N[C@@H](Cc1c[nH]cn1)C(=O)N[C@@H](CC(N)=O)C(=O)N[C@@H](CC(C)C)C(=O)NCC(=O)N[C@@H](CCCCN)C(=O)N[C@@H](Cc1c[nH]cn1)C(=O)N[C@@H](CC(C)C)C(=O)N[C@@H](CC(N)=O)C(=O)N[C@@H](CO)C(=O)N[C@@H](CCSC)C(=O)N[C@@H](CCC(=O)O)C(=O)N[C@@H](CCCN=C(N)N)C(=O)N[C@H](C(=O)N[C@H]1CCC(=O)NCCCC[C@@H](C(=O)N[C@@H](CC(C)C)C(=O)N[C@@H](CC(C)C)C(=O)N[C@@H](CCC(N)=O)C(=O)N[C@@H](CC(=O)O)C(=O)N[C@H](C(N)=O)C(C)C)NC(=O)[C@H](CCCN=C(N)N)NC(=O)[C@H](CC(C)C)NC(=O)[C@H](Cc2c[nH]c3ccccc23)NC1=O)C(C)C [peptide 3, [Leu^27]cyclo(Glu^22-Lys^26)-hPTH-(1-31)-NH2] (H-SVSEIQLMHNLGKHLNSMERVEWLRKLLQDV-NH2; lactam 22-26)
- EC50 [1, 5]: 3 nM
- bioavailability, in words ([2]; subcutaneous, 0.8 nmol/100 g, inferred from time to minimum bp): increased bioavailability

Molecule: CC[C@H](C)[C@H](NC(=O)[C@H](CCC(=O)O)NC(=O)[C@H](CO)NC(=O)[C@@H](NC(=O)[C@@H](N)CO)C(C)C)C(=O)N[C@@H](CCC(N)=O)C(=O)N[C@@H](CC(C)C)C(=O)N[C@@H](CCSC)C(=O)N[C@@H](Cc1c[nH]cn1)C(=O)N[C@@H](CC(N)=O)C(=O)N[C@@H](CC(C)C)C(=O)NCC(=O)N[C@@H](CCCCN)C(=O)N[C@@H](Cc1c[nH]cn1)C(=O)N[C@@H](CC(C)C)C(=O)N[C@@H](CC(N)=O)C(=O)N[C@@H](CO)C(=O)N[C@@H](CCSC)C(=O)N[C@@H](CCC(=O)O)C(=O)N[C@@H](CCCNC(=N)N)C(=O)N[C@H](C(=O)N[C@@H](CCC(=O)O)C(=O)N[C@@H](Cc1c[nH]c2ccccc12)C(=O)N[C@@H](CC(C)C)C(=O)N[C@@H](CCCNC(=N)N)C(=O)N[C@H]1CCCCNC(=O)C[C@@H](C(=O)N[C@H](C(N)=O)C(C)C)NC(=O)[C@H](CCC(N)=O)NC(=O)[C@H](CC(C)C)NC(=O)[C@H](CC(C)C)NC1=O)C(C)C [compound 4, [Leu^27]cyclo(Lys^26-Asp^30)-hPTH-(1-31)-NH2] (H-SVSEIQLMHNLGKHLNSMERVEWLRKLLQDV-NH2; lactam 26-30; N-terminus assumed)
- EC50 [1, 5]: 3 nM
- EC50 ([1]; ROS cell line, read-out: EC50, AC-stimulating activity): 17 ± 3.3 nM
- hypotensive action, in words ([2]; subcutaneous injection): enhanced hypotensive effects

Molecule: CC[C@H](C)[C@H](NC(=O)[C@H](CCC(=O)O)NC(=O)[C@H](CO)NC(=O)[C@@H](NC(=O)[C@@H](N)CO)C(C)C)C(=O)N[C@@H](CCC(N)=O)C(=O)N[C@@H](CC(C)C)C(=O)N[C@@H](CCSC)C(=O)N[C@@H](Cc1c[nH]cn1)C(=O)N[C@@H](CC(N)=O)C(=O)N[C@@H](CC(C)C)C(=O)NCC(=O)N[C@@H](CCCCN)C(=O)N[C@@H](Cc1c[nH]cn1)C(=O)N[C@@H](CC(C)C)C(=O)N[C@@H](CC(N)=O)C(=O)N[C@@H](CO)C(=O)N[C@@H](CCSC)C(=O)N[C@@H](CCC(=O)O)C(=O)N[C@@H](CCCNC(=N)N)C(=O)N[C@H](C(=O)N[C@H]1CCC(=O)NCCCC[C@@H](C(=O)N[C@@H](C)C(=O)N[C@@H](CC(C)C)C(=O)N[C@@H](CCC(N)=O)C(=O)N[C@@H](CC(=O)O)C(=O)N[C@H](C(N)=O)C(C)C)NC(=O)[C@H](CCCNC(=N)N)NC(=O)[C@H](CC(C)C)NC(=O)[C@H](Cc2c[nH]c3ccccc23)NC1=O)C(C)C [[Ala^27]cyclo(Glu^22—Lys^26)—hPTH—(1-31)-NH2] (H-SVSEIQLMHNLGKHLNSMERVEWLRKALQDV-NH2; lactam 22-26; N-terminus assumed)
- EC50 [1, 5]: 9 nM

B1: [Leu^27]cyclo(Glu^22-Lys^26)-hPTH-(1-31)-NH2 (peptide)
peptide: SVSEIQLMHNLGKHLNSMERVEWLRKLLQDV-NH2
modifications: lactam 22-26; N-terminus assumed
SMILES: CC[C@H](C)[C@H](NC(=O)[C@H](CCC(=O)O)NC(=O)[C@H](CO)NC(=O)[C@@H](NC(=O)[C@@H](N)CO)C(C)C)C(=O)N[C@@H](CCC(N)=O)C(=O)N[C@@H](CC(C)C)C(=O)N[C@@H](CCSC)C(=O)N[C@@H](Cc1c[nH]cn1)C(=O)N[C@@H](CC(N)=O)C(=O)N[C@@H](CC(C)C)C(=O)NCC(=O)N[C@@H](CCCCN)C(=O)N[C@@H](Cc1c[nH]cn1)C(=O)N[C@@H](CC(C)C)C(=O)N[C@@H](CC(N)=O)C(=O)N[C@@H](CO)C(=O)N[C@@H](CCSC)C(=O)N[C@@H](CCC(=O)O)C(=O)N[C@@H](CCCNC(=N)N)C(=O)N[C@H](C(=O)N[C@H]1CCC(=O)NCCCC[C@@H](C(=O)N[C@@H](CC(C)C)C(=O)N[C@@H](CC(C)C)C(=O)N[C@@H](CCC(N)=O)C(=O)N[C@@H](CC(=O)O)C(=O)N[C@H](C(N)=O)C(C)C)NC(=O)[C@H](CCCNC(=N)N)NC(=O)[C@H](CC(C)C)NC(=O)[C@H](Cc2c[nH]c3ccccc23)NC1=O)C(C)C
- Adenylyl Cyclase (EC50) (PTH receptor [3]): 3 nM
- AC-stimulating activity, EC50 (PTH receptor [4]): 3.3 nM

Molecule: SVSEIQLMHNLGKHLNSMERVEWLRKLLQDV-NH2 [[Leu^27]-hPTH-(1-31)-NH2]
- AC activity in the ROS cell line, EC50 (PTH receptor [4]): 11.5 nM

B2: [Leu^27]cyclo(Lys^26-Asp^30)-hPTH-(1-31)-NH2 (peptide)
peptide: SVSEIQLMHNLGKHLNSMERVEWLRKLLQDV-NH2
modifications: lactam 26-30; N-terminus assumed
SMILES: CC[C@H](C)[C@H](NC(=O)[C@H](CCC(=O)O)NC(=O)[C@H](CO)NC(=O)[C@@H](NC(=O)[C@@H](N)CO)C(C)C)C(=O)N[C@@H](CCC(N)=O)C(=O)N[C@@H](CC(C)C)C(=O)N[C@@H](CCSC)C(=O)N[C@@H](Cc1c[nH]cn1)C(=O)N[C@@H](CC(N)=O)C(=O)N[C@@H](CC(C)C)C(=O)NCC(=O)N[C@@H](CCCCN)C(=O)N[C@@H](Cc1c[nH]cn1)C(=O)N[C@@H](CC(C)C)C(=O)N[C@@H](CC(N)=O)C(=O)N[C@@H](CO)C(=O)N[C@@H](CCSC)C(=O)N[C@@H](CCC(=O)O)C(=O)N[C@@H](CCCNC(=N)N)C(=O)N[C@H](C(=O)N[C@@H](CCC(=O)O)C(=O)N[C@@H](Cc1c[nH]c2ccccc12)C(=O)N[C@@H](CC(C)C)C(=O)N[C@@H](CCCNC(=N)N)C(=O)N[C@H]1CCCCNC(=O)C[C@@H](C(=O)N[C@H](C(N)=O)C(C)C)NC(=O)[C@H](CCC(N)=O)NC(=O)[C@H](CC(C)C)NC(=O)[C@H](CC(C)C)NC1=O)C(C)C
- adenylyl cyclase stimulation, EC50 (PTH receptor [4]): 17 nM

Molecule: SVSEIQLMHNLGKHLNSMERVEWLRKKLQDV-NH2 (lactam 27-30) [cyclo(Lys^27-Asp^30)-hPTH-(1-31)-NH2]
- Adenylyl Cyclase (EC50) (PTH receptor [3]): 40 nM
- adenylyl cyclase stimulation, EC50 (PTH receptor [4]): 40.3 nM
